Source: US8962691B2, “Retinoid replacements and opsin agonists and methods for the use thereof” (University of Washington, priority 2003, dated 2015)

Biological target: T1, phosphorylated opsin (Mus musculus, UniProt P15409)
T1 construct: The retinas from Rpe65+/+ mice and Rpe65−/− mice were fixed in constant darkness; from tissue; host or cells: retina sections of Rpe65-/- and Rpe65+/+ mice (in vivo dosing)
Assay: Immunocytochemistry with anti-phosphorylated Rh antibody
Assay type: in vivo
Conditions: gavaged once at PND 30, analyzed 48 hours post-treatment, dark
Procedure: Rpe65 mice were divided into five groups: Rpe65−/−, Rpe65−/− that were gavaged with 9-cis-retinal and kept in the dark; Rpe65−/− that were gavaged with 9-cis-retinal, exposed to a flash, and kept in the dark for 15 min; Rpe65+/+ that were kept in the dark; and Rpe65+/+ that were exposed to a flash and kept in the dark for 15 minutes. For the flash studies, dark-adapted mice were subjected to a flash (Sunpak 433D, 1 ms) from a distance of 2 cm. The retinas were fixed in 4% paraformalydehyde in 0.13 M sodium phosphate, pH 7.4, for 15 hours at 4° C., and the tissues were transferred to 5, 10, or 15% sucrose in 0.13 M sodium phosphate, pH 7.4, for 30 minutes each time and stored overnight in 20% sucrose in the same buffer at 4° C. The tissue was then transferred to optimal cutting temperature cryoembedding compound and sectioned at 10 μm. The cryosections were incubated overnight at 4° C. in mouse monoclonal anti-phosphorylated Rh A11-82P antibody diluted 1:10. Triton X-100 (0.1%) was included in all phosphate-buffered saline solutions to facilitate antibody penetration. The controls were processed by omitting primary antibodies from the incubation buffer. After incubation in primary antibodies, the sections were rinsed with phosphate-buffered saline and then incubated with indocarbocyanine (Cy3)-conjugated goat anti-mouse IgG (1:200). […]

T1 sequence (P15409 whole entry): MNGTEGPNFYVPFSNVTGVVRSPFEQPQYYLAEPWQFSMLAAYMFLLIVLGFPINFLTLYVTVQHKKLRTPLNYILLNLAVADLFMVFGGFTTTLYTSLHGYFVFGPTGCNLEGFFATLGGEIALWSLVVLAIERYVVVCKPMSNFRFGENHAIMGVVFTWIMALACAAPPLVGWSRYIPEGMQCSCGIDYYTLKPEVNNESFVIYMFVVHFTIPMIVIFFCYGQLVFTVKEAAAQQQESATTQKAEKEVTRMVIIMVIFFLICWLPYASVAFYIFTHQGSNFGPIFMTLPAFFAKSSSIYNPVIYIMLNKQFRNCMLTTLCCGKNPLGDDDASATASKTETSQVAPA

Structure (SMILES): CC1=C(/C=C/C(C)=C\C=C\C(C)=C\C=O)C(C)(C)CCC1 [9-cis-retinal]
- ROS labeling by antibody against phosphorylated opsin: abolished
